These results are taken from patent US10172830B2, “Pyrazolone compounds having human neutrophil elastase inhibitory properties” (CHIESI FARMACEUTICI S.P.A., priority 2016, dated 2019).

Each structure is given as a SMILES string.

For this assay, the target named is T1, human neutrophil elastase (HNE) (Homo sapiens, UniProt P08246).
T1 construct: purchased Sigma E8140
T1 sequence (P08246 30-247 limits assumed): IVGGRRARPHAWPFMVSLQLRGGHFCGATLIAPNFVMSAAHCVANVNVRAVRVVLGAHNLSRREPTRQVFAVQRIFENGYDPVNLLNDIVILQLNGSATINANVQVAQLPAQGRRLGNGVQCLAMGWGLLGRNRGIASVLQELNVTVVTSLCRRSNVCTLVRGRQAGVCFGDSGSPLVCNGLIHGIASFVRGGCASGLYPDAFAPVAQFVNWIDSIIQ
Briefly: HNE enzyme assay (human neutrophil elastase enzyme activity assay). Format: biochemical. The settings on record: human leukocyte elastase 0.00072 U/mL; substrate MeOSuc-Ala-Ala-Pro-Val-AMC 100 μM; 25° C. for 30 minutes; at least two separate experiments; read-out: HNE inhibition (HNE enzyme inhibition, IC50 values). As to the method: Compounds of the present invention were tested for potency in a human neutrophil elastase (HNE) enzyme activity assay.
Assays were performed in 96-well plates in a total assay volume of 100 μL. The final concentration of elastase enzyme (human leukocyte elastase, Sigma E8140) was 0.00072 U/mL. The peptide substrate (MeOSuc-Ala-Ala-Pro-Val-AMC, Calbiochem #324740) was used at a final concentration of 100 μM. The final concentration of DMSO was 1% in the assay buffer (0.05M Tris.HCl, 0.1M NaCl, 0.1M CaCl2, 0.0005% brij-35, pH 7.5). The enzymatic reaction was started by addition of the enzyme and incubated at 25° C. for 30 minutes. After incubation, the reaction was stopped by addition of soybean trypsin inhibitor (Sigma T9003) at a final concentration of 50 μg/well. Fluorescence was measured using a Molecular Devices fluorescence plate reader using 380 nm excitation and 460 nm emission wavelengths.
A dose response to each compound was performed and the effect of compound in each experiment was expressed as a percentage inhibition of the control enzyme fluorescence. Dose response curves were plotted and compound potency (IC50) was determined. Compounds were tested in at least two separate experiments.

Regarding `C[C@H](NC(=O)c1c(-c2ccnn2-c2ccc(C#N)cc2)n(C)n(-c2cccc(C(F)(F)F)c2)c1=O)C(=O)N1CCCN(C)CC1` [Example 17, 2′-(4-Cyano-phenyl)-2-methyl-5-oxo-1-(3-trifluoromethyl-phenyl)-2,5-dihydro-1H,2′H-[3,3′]bipyrazolyl-4-carboxylic acid [(S)-1-methyl-2-(4-methyl-[1,4]diazepan-1-yl)-2-oxo-ethyl]-amide], the IC50 is less than 1 nM.
The value for `Cn1c(-c2ccnn2-c2ccc(C#N)cc2)c(C(=O)NC2CC[N+](C)(C)CC2)c(=O)n1-c1cccc(C(F)(F)F)c1` [Example 18, 4-{[2′-(4-Cyano-phenyl)-2-methyl-5-oxo-1-(3-trifluoromethyl-phenyl)-2,5-dihydro-1H,2′H-[3,3′]bipyrazolyl-4-carbonyl]-amino}-1,1-dimethyl-piperidinium benzene sulphonate] was less than 1 nM; that for `C[C@H](NC(=O)c1c(-c2ccnn2-c2ccc(C#N)cc2)n(C)n(-c2cccc(C(F)(F)F)c2)c1=O)c1cc[n+](C)cc1` [Example 19, 4-((S)-1-{[2′-(4-Cyano-phenyl)-2-methyl-5-oxo-1-(3-trifluoromethyl-phenyl)-2,5-dihydro-1H,2′H-[3,3′]bipyrazolyl-4-carbonyl]-amino}-ethyl)-1-methyl-pyridinium benzene sulphonate] was less than 1 nM; that for `Cn1c(-c2ccnn2-c2ccc(C#N)cc2)c(C(=O)NCCC[N+](C)(C)C)c(=O)n1-c1cccc(C(F)(F)F)c1` [Example 20, (3-{[2′-(4-Cyano-phenyl)-2-methyl-5-oxo-1-(3-trifluoromethyl-phenyl)-2,5-dihydro-1H,2′H-[3,3′]bipyrazolyl-4-carbonyl]-amino}-propyl)-trimethyl-ammonium benzene sulphonate] was 1 to 10 nM.
In the case of `Cn1c(-c2ccnn2-c2ccc(C#N)cc2)c(C(=O)NCC[N+](C)(C)C)c(=O)n1-c1cccc(C(F)(F)F)c1` [Example 21, (2-{[2′-(4-Cyano-phenyl)-2-methyl-5-oxo-1-(3-trifluoromethyl-phenyl)-2,5-dihydro-1H,2′H-[3,3′]bipyrazolyl-4-carbonyl]-amino}-ethyl)-trimethyl-ammonium benzene sulphonate] it was 1 to 10 nM; in that of `Cn1c(-c2ccnn2-c2ccc(C#N)cc2)c(C(=O)NC2CC[N+]3(CCCC3)CC2)c(=O)n1-c1cccc(C(F)(F)F)c1` [Example 22, 8-{[2′-(4-Cyano-phenyl)-2-methyl-5-oxo-1-(3-trifluoromethyl-phenyl)-2,5-dihydro-1H,2′H-[3,3′]bipyrazolyl-4-carbonyl]-amino}-5-azonia-spiro[4.5]decane bromide], less than 1 nM.
In the case of `Cn1c(-c2ccnn2-c2ccc(C#N)cc2)c(C(=O)N[C@@H]2C[C@@H]3C[N+](C)(C)C[C@@H]3C2)c(=O)n1-c1cccc(C(F)(F)F)c1` [Example 23, (3aS,5R,6aR)-5-{[2′-(4-Cyano-phenyl)-2-methyl-5-oxo-1-(3-trifluoromethyl-phenyl)-2,5-dihydro-1H,2′H-[3,3′]bipyrazolyl-4-carbonyl]-amino}-2,2-dimethyl-octahydro-cyclopenta[c]pyrrolium benzene sulphonate] it was less than 1 nM.
On to `Cn1c(-c2ccnn2-c2ccc(C#N)cc2)c(C(=O)N[C@H]2CC[C@H](C[N+](C)(C)C)CC2)c(=O)n1-c1cccc(C(F)(F)F)c1` [Example 24, (Trans-4-{[2′-(4-cyano-phenyl)-2-methyl-5-oxo-1-(3-trifluoromethyl-phenyl)-2,5-dihydro-1H,2′H-[3,3′]bipyrazolyl-4-carbonyl]-amino}-cyclohexylmethyl)-trimethyl-ammonium benzene sulphonate], for which the half-inhibitory concentration (IC50) is less than 1 nM.
In the case of `Cn1c(-c2ccnn2-c2ccc(C#N)cc2)c(C(=O)N[C@H]2CC[C@H](C[N+](C)(C)Cc3ccccc3)CC2)c(=O)n1-c1cccc(C(F)(F)F)c1` [Example 25, Benzyl-(trans-4-{[2′-(4-cyano-phenyl)-2-methyl-5-oxo-1-(3-trifluoromethyl-phenyl)-2,5-dihydro-1H,2′H-[3,3′]bipyrazolyl-4-carbonyl]-amino}-cyclohexylmethyl)-dimethyl-ammonium bromide] it was less than 1 nM; in that of `C[C@H](NC(=O)c1c(-c2ccnn2-c2ccc(C#N)cc2)n(C)n(-c2cccc(C(F)(F)F)c2)c1=O)C(=O)N1CC[N+](C)(C)CC1` [Example 26, 4-((S)-2-{[2′-(4-Cyano-phenyl)-2-methyl-5-oxo-1-(3-trifluoromethyl-phenyl)-2,5-dihydro-1H,2′H-[3,3′]bipyrazolyl-4-carbonyl]-amino}-propionyl)-1,1-dimethyl-piperazin-1-ium benzene sulphonate], less than 1 nM; in that of `C[C@H](NC(=O)c1c(-c2ccnn2-c2ccc(C#N)cc2)n(C)n(-c2cccc(C(F)(F)F)c2)c1=O)C(=O)N1CC[N+](C)(Cc2ccccc2)CC1` [Example 27, 1-Benzyl-4-((S)-2-{[2′-(4-cyano-phenyl)-2-methyl-5-oxo-1-(3-trifluoromethyl-phenyl)-2,5-dihydro-1H,2′H-[3,3′]bipyrazolyl-4-carbonyl]-amino}-propionyl)-1-methyl-piperazin-1-ium bromide], less than 1 nM.
In the case of `Cn1c(-c2ccnn2-c2ccc(C#N)cc2)c(C(=O)NC2C[C@H]3CC[C@@H](C2)[N+]3(C)C)c(=O)n1-c1cccc(C(F)(F)F)c1` (stereo partly drawn) [Example 28, (1S,3S,5R)-3-{[2′-(4-Cyano-phenyl)-2-methyl-5-oxo-1-(3-trifluoromethyl-phenyl)-2,5-dihydro-1H,2′H-[3,3′]bipyrazolyl-4-carbonyl]-amino}-8,8-dimethyl-8-azonia-bicyclo[3.2.1]octane benzene sulphonate] it was less than 1 nM; in that of `Cn1c(-c2ccnn2-c2ccc(C#N)cc2)c(C(=O)NC[C@H]2CC[C@H]([N+](C)(C)C)CC2)c(=O)n1-c1cccc(C(F)(F)F)c1` [Example 29, [Trans-4-({[2′-(4-cyano-phenyl)-2-methyl-5-oxo-1-(3-trifluoromethyl-phenyl)-2,5-dihydro-1H,2′H-[3,3′]bipyrazolyl-4-carbonyl]-amino}-methyl)-cyclohexyl]-trimethyl-ammonium benzene sulphonate], 1 to 10 nM; in that of `C[C@H](NC(=O)c1c(-c2ccnn2-c2ccc(C#N)cc2)n(C)n(-c2cccc(C(F)(F)F)c2)c1=O)c1ncc(C[N+](C)(C)C)o1` [Example 30, [2-((S)-1-{[2′-(4-Cyano-phenyl)-2-methyl-5-oxo-1-(3-trifluoromethyl-phenyl)-2,5-dihydro-1H,2′H-[3,3′]bipyrazolyl-4-carbonyl]-amino}-ethyl)-oxazol-5-ylmethyl]-trimethyl-ammonium benzene sulphonate], less than 1 nM.
In the case of `C[C@H](NC(=O)c1c(-c2ccnn2-c2ccc(C#N)cc2)n(C)n(-c2cccc(C(F)(F)F)c2)c1=O)c1ncc(C[N+](C)(C)Cc2ccccc2)o1` [Example 31, Benzyl-[2-((S)-1-{[2′-(4-cyano-phenyl)-2-methyl-5-oxo-1-(3-trifluoromethyl-phenyl)-2,5-dihydro-1H,2′H-[3,3′]bipyrazolyl-4-carbonyl]-amino}-ethyl)-oxazol-5-ylmethyl]-dimethyl-ammonium bromide] it was less than 1 nM; in that of `Cc1cc(C[N+](C)(C)Cc2cnc([C@H](C)NC(=O)c3c(-c4ccnn4-c4ccc(C#N)cc4)n(C)n(-c4cccc(C(F)(F)F)c4)c3=O)o2)no1` [Example 32, [2-((S)-1-{[2′-(4-Cyano-phenyl)-2-methyl-5-oxo-1-(3-trifluoromethyl-phenyl)-2,5-dihydro-1H,2′H-[3,3′]bipyrazolyl-4-carbonyl]-amino}-ethyl)-oxazol-5-ylmethyl]-dimethyl-(5-methyl-isoxazol-3-ylmethyl)-ammonium chloride], less than 1 nM.
With `Cn1c(-c2ccnn2-c2ccc(C#N)cc2)c(C(=O)NC2CCN(C(=O)C[N+](C)(C)C)CC2)c(=O)n1-c1cccc(C(F)(F)F)c1` [Example 33, [2-(4-{[2′-(4-Cyano-phenyl)-2-methyl-5-oxo-1-(3-trifluoromethyl-phenyl)-2,5-dihydro-1H,2′H-[3,3′]bipyrazolyl-4-carbonyl]-amino}-piperidin-1-yl)-2-oxo-ethyl]-trimethyl-ammonium benzene sulphonate], the IC50 was less than 1 nM.
For the molecule `Cn1c(-c2ccnn2-c2ccc(C#N)cc2)c(C(=O)OC2CCN(C(=O)C[N+](C)(C)C)CC2)c(=O)n1-c1cccc(C(F)(F)F)c1` [Example 34, (2-{4-[2′-(4-Cyano-phenyl)-2-methyl-5-oxo-1-(3-trifluoromethyl-phenyl)-2,5-dihydro-1H,2′H-[3,3′]bipyrazolyl-4-carbonyloxy]-piperidin-1-yl}-2-oxo-ethyl)-trimethyl-ammonium benzene sulphonate], the IC50 lay within 1 to 10 nM.
